From patent US8349318B2, “Use of specifically engineered enzymes to enhance the efficacy of prodrugs” (The Board of Trustees of the University of Illinois, priority 2008, dated 2013)

Tests used:
R104Q-D133A dCK = molecular target: T1, R104Q-D133A dCK (Homo sapiens, UniProt P27707, D133A/R104Q); experiment: Kinetic assay of nucleoside phosphorylation by R104Q-D133A dCK; format: biochemical; conditions: nucleoside 200 uM
T1 construct: made in house

dCK R104L/D133A = dCK R104L/D133A (Homo sapiens, UniProt P27707, D133A/R104L); experiment: Kinetic characterization of nucleoside phosphorylation by dCK R104L/D133A; conditions: Table 9
dCK R104L/D133A, sequence (P27707 whole entry R104L/D133A): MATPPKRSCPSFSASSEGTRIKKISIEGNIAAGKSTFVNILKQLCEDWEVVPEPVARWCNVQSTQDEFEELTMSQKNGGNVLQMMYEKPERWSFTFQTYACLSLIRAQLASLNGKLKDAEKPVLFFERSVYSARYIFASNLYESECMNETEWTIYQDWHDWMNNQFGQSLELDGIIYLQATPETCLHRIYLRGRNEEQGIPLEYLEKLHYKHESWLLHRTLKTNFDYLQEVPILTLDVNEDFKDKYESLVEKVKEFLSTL

T1 sequence (P27707 whole entry R104Q/D133A): as the sequence (P27707 whole entry R104L/D133A) above, with L104Q counted along it

kcat R104Q-D133A dCK (with 1 mM ATP as donor) (R104Q-D133A dCK): 0.15 s⁻¹
kcat, R104L/D133A (dCK R104L/D133A): 3.20 ± 0.07 s⁻¹
Km (dCK R104L/D133A; read-out: Km, R104L/D133A): 24.3 ± 3.6 µM
Compound: Cc1cn([C@H]2C[C@H](O)[C@@H](CO)O2)c(=O)[nH]c1=O [D-dT, D-thymidine]
